# Data taken from the kinase profiling compilation of Christmann-Franck et al. (2016).
# Legend:
# Assay in all cases: radiometric filter-binding kinase assay, Kinase HotSpot
# Conditions in all cases: compound 0.5 µM; ATP 10 µM
# MAPK8 (human) = MAPK8 (human) (UniProt P45983)
# IRAK1 (human) = IRAK1 (human) (UniProt P51617)
# RIPK2 (human) = RIPK2 (human) (UniProt O43353)
# NEK7 (human) = NEK7 (human) (UniProt Q8TDX7)
# AURKB (human) = AURKB (human) (UniProt Q96GD4)
# PRKCB1 (human) = PRKCB1 (human) (UniProt P05771)
# PDPK1 (human) = PDPK1 (human) (UniProt O15530)
# PLK1 (human) = PLK1 (human) (UniProt P53350)
# FER (human) = FER (human) (UniProt P16591)
# CAMK4 (human) = CAMK4 (human) (UniProt Q16566)
# HIPK3 (human) = HIPK3 (human) (UniProt Q9H422)
# MAP3K10 (human) = MAP3K10 (human) (UniProt Q02779)
# PAK1 (human) = PAK1 (human) (UniProt Q13153)
# STK11 (human) = STK11 (human) (UniProt Q15831)
# DYRK3 (human) = DYRK3 (human) (UniProt O43781)
# AXL (human) = AXL (human) (UniProt P30530)
# STK24 (human) = STK24 (human) (UniProt Q9Y6E0)
# MST4 (human) = MST4 (human) (UniProt Q9P289)
# EPHB1 (human) = EPHB1 (human) (UniProt P54762)
# PHKG2 (human) = PHKG2 (human) (UniProt P15735)
# MINK1 (human) = MINK1 (human) (UniProt Q8N4C8)
# PRKCZ (human) = PRKCZ (human) (UniProt Q05513)
# EPHA4 (human) = EPHA4 (human) (UniProt P54764)
# RET (human) = RET (human) (UniProt P07949)
# HIPK1 (human) = HIPK1 (human) (UniProt Q86Z02)
# MAPK13 (human) = MAPK13 (human) (UniProt O15264)
# OXSR1 (human) = OXSR1 (human) (UniProt O95747)
# CSNK1G3 (human) = CSNK1G3 (human) (UniProt Q9Y6M4)
# JAK3 JH1 JH2 (human) = JAK3 JH1 JH2 (human) (UniProt P52333)
# AKT2 (human) = AKT2 (human) (UniProt P31751)
# CSNK1A1 (human) = CSNK1A1 (human) (UniProt P48729)
# PAK4 (human) = PAK4 (human) (UniProt O96013)
# ERBB2 (human) = ERBB2 (human) (UniProt P04626)
# PLK2 (human) = PLK2 (human) (UniProt Q9NYY3)
# MAPKAPK5 (human) = MAPKAPK5 (human) (UniProt Q8IW41)
# PDGFRA (human) = PDGFRA (human) (UniProt P16234)
# MARK1 (human) = MARK1 (human) (UniProt Q9P0L2)
# [1] = biological target: JAK1 JH1 catalytic (human) (UniProt P23458)
# PIM2 (human) = PIM2 (human) (UniProt Q9P1W9)
# SRMS (human) = SRMS (human) (UniProt Q9H3Y6)
# CDK9 CCNT1 (human) = CDK9 CCNT1 (human) (UniProt P50750+O60563)
# CDK1 CCNA2 (human) = CDK1 CCNA2 (human) (UniProt P06493+P20248)
# Chain of HIPK1 (human) (Q86Z02 whole entry, looked up): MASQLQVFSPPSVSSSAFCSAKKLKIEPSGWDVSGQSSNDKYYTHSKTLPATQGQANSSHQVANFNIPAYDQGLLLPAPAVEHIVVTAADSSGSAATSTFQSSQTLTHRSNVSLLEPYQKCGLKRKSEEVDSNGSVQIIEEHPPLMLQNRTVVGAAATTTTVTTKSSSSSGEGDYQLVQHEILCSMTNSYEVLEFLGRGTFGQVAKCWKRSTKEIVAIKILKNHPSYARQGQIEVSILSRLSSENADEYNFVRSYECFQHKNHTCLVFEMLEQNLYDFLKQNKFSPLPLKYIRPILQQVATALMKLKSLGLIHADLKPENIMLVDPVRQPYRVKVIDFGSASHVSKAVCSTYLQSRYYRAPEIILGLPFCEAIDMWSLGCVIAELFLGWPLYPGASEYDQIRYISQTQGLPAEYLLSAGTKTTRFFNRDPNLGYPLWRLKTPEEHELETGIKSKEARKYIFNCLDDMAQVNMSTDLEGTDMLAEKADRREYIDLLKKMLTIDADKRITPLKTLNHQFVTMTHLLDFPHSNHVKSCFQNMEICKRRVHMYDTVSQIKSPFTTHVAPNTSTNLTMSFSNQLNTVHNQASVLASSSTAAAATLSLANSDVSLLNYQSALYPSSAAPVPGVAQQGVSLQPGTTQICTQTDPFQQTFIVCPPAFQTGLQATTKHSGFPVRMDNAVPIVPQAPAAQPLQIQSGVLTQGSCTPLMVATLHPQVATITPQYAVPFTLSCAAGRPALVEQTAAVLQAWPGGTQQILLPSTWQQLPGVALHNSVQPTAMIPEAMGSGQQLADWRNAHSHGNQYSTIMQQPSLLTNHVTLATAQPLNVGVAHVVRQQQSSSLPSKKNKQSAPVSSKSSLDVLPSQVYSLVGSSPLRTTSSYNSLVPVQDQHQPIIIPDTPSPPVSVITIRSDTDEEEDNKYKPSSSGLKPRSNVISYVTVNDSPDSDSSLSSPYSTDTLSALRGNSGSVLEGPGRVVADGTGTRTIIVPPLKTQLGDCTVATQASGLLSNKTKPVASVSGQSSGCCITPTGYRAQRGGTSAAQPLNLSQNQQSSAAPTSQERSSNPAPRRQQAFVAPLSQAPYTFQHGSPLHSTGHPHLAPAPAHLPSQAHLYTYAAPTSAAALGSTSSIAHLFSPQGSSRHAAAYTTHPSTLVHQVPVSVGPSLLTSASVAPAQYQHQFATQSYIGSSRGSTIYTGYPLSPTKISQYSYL
# Chain of PAK1 (human) (Q13153 whole entry, looked up): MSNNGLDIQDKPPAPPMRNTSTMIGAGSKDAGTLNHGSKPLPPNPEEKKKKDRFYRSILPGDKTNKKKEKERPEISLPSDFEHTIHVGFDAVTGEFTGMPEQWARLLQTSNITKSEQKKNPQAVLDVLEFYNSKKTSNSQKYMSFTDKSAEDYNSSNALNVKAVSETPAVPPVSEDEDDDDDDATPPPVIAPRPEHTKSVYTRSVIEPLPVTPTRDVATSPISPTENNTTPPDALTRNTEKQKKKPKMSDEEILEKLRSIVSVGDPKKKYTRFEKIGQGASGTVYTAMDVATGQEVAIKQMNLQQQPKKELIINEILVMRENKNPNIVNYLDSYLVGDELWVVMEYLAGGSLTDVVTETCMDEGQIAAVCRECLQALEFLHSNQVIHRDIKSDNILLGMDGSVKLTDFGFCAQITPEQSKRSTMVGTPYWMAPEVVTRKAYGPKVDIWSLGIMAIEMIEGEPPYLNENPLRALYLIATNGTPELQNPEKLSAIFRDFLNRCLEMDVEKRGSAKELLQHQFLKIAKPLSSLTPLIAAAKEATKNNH
# Chain of EPHA4 (human) (P54764 whole entry, looked up): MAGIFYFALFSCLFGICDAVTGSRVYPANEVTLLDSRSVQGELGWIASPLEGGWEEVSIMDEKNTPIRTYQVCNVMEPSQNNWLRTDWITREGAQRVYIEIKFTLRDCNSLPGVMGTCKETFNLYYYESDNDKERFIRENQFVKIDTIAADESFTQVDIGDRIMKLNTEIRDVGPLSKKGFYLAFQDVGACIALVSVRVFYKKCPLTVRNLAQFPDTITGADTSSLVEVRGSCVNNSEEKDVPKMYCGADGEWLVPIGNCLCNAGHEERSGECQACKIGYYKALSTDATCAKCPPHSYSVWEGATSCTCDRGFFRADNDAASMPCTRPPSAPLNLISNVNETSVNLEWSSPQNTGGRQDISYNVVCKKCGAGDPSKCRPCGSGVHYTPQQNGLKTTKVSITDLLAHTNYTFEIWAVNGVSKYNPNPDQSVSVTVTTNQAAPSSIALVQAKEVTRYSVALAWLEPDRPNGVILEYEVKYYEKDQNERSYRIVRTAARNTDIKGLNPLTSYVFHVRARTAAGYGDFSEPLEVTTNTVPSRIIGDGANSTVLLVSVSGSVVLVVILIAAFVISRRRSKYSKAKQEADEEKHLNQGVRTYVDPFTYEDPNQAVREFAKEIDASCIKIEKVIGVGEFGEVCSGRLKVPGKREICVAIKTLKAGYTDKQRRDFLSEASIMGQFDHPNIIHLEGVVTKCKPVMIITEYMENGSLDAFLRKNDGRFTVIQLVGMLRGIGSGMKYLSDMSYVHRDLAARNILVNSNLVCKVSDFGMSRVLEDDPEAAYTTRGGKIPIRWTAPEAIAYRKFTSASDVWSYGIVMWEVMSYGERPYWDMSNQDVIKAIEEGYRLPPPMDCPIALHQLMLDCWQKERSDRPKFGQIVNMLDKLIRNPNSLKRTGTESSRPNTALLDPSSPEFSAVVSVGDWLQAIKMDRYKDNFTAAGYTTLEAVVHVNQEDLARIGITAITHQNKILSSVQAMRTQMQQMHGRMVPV
# Chain of MST4 (human) (Q9P289 whole entry, looked up): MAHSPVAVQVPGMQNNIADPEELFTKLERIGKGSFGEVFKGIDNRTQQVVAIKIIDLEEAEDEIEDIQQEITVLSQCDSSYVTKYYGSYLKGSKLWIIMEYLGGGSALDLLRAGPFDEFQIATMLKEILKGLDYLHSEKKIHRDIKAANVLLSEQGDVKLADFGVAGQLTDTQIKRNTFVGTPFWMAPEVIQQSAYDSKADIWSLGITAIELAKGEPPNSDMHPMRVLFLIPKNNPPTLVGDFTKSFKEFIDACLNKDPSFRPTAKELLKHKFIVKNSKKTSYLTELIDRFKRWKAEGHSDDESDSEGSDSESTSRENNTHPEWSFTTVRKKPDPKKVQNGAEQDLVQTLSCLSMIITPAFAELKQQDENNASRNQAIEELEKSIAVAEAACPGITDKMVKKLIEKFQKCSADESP
# Chain of PIM2 (human) (Q9P1W9 whole entry, looked up): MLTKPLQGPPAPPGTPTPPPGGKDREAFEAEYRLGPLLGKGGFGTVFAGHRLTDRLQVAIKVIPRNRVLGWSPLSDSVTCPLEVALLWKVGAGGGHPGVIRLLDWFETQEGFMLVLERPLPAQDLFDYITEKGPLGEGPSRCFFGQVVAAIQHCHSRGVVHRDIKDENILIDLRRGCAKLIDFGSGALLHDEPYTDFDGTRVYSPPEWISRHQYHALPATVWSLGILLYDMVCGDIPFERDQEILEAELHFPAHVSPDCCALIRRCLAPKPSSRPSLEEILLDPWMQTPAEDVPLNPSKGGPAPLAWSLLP
# Chain of CSNK1G3 (human) (Q9Y6M4 whole entry, looked up): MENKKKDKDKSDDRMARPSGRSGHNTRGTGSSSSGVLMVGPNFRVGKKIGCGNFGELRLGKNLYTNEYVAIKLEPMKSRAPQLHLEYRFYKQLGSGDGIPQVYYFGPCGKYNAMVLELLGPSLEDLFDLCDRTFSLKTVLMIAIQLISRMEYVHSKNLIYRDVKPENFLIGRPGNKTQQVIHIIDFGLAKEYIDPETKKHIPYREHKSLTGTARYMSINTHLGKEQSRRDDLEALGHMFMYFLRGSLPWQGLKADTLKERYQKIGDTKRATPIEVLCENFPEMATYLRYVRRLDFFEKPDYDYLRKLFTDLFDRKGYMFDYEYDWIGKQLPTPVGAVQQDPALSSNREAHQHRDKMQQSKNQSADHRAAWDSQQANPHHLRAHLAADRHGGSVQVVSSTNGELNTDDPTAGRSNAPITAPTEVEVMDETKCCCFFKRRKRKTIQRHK
# Chain of MAPK8 (human) (P45983 whole entry, looked up): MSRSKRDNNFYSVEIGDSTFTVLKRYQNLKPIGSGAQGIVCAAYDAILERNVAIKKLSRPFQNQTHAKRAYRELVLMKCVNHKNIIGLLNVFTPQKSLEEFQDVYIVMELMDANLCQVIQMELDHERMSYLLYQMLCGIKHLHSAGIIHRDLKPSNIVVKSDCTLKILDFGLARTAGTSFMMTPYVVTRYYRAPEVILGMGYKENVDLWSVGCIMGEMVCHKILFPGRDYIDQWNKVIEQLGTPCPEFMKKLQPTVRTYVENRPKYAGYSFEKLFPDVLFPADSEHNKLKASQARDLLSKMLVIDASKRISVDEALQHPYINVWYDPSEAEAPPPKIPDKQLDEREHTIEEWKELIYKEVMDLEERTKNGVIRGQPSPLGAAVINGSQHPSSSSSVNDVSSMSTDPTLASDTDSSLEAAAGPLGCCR
# Chain of SRMS (human) (Q9H3Y6 whole entry, looked up): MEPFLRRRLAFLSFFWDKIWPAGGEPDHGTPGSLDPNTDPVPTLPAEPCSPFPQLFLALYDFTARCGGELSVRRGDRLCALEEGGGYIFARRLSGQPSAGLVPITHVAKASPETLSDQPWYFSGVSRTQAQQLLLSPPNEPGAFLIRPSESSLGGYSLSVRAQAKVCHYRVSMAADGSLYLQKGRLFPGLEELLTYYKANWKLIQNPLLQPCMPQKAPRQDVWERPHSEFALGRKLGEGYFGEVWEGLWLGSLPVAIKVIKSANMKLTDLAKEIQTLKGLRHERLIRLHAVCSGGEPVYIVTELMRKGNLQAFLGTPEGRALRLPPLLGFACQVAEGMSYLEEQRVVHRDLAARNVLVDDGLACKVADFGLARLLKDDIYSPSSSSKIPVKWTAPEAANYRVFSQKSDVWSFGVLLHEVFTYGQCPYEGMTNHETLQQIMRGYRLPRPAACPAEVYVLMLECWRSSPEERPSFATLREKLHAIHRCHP
smiles,measurement,setting,value
CC(C)[C@H](CO)Nc1nc(Nc2cc(N)cc(Cl)c2)c2ncn(C(C)C)c2n1,residual activity,MAPK8 (human),93.4%
same,residual activity,IRAK1 (human),97.1%
same,residual activity,RIPK2 (human),87.7%
same,residual activity,NEK7 (human),89%
same,residual activity,AURKB (human),87.8%
same,residual activity,PRKCB1 (human),98.8%
same,residual activity,PDPK1 (human),106%
same,residual activity,PLK1 (human),54.9%
same,residual activity,FER (human),54.9%
same,residual activity,CAMK4 (human),97.4%
same,residual activity,HIPK3 (human),99.4%
same,residual activity,MAP3K10 (human),95.1%
same,residual activity,PAK1 (human),81.8%
same,residual activity,STK11 (human),60.3%
same,residual activity,DYRK3 (human),103%
same,residual activity,AXL (human),93.1%
same,residual activity,STK24 (human),75.9%
same,residual activity,MST4 (human),67.8%
same,residual activity,EPHB1 (human),59.2%
same,residual activity,PHKG2 (human),105%
same,residual activity,MINK1 (human),94.5%
same,residual activity,PRKCZ (human),101%
same,residual activity,EPHA4 (human),61.4%
same,residual activity,RET (human),61.6%
same,residual activity,HIPK1 (human),99.2%
same,residual activity,MAPK13 (human),101%
same,residual activity,OXSR1 (human),100%
same,residual activity,CSNK1G3 (human),13.4%
same,residual activity,JAK3 JH1 JH2 (human),108%
same,residual activity,AKT2 (human),100%
same,residual activity,CSNK1A1 (human),75.5%
same,residual activity,PAK4 (human),102%
same,residual activity,ERBB2 (human),92.9%
same,residual activity,PLK2 (human),92%
same,residual activity,MAPKAPK5 (human),95.8%
same,residual activity,PDGFRA (human),89.4%
same,residual activity,MARK1 (human),87.5%
same,residual activity,[1],101%
same,residual activity,PIM2 (human),113%
same,residual activity,SRMS (human),96.8%
COc1cc2ncc(-c3ccccc3)nc2cc1OC,residual activity,MAPK8 (human),102%
same,residual activity,IRAK1 (human),98.4%
same,residual activity,RIPK2 (human),90.3%
same,residual activity,NEK7 (human),102%
same,residual activity,AURKB (human),74.4%
same,residual activity,PRKCB1 (human),105%
same,residual activity,PDPK1 (human),92.6%
same,residual activity,PLK1 (human),98.5%
same,residual activity,FER (human),80%
same,residual activity,CAMK4 (human),95.2%
same,residual activity,HIPK3 (human),97.7%
same,residual activity,MAP3K10 (human),105%
same,residual activity,PAK1 (human),91.3%
same,residual activity,STK11 (human),86.8%
same,residual activity,DYRK3 (human),95.4%
same,residual activity,AXL (human),95.2%
same,residual activity,STK24 (human),104%
same,residual activity,MST4 (human),109%
same,residual activity,EPHB1 (human),92.8%
same,residual activity,PHKG2 (human),97.1%
same,residual activity,MINK1 (human),93.5%
same,residual activity,PRKCZ (human),96.3%
same,residual activity,EPHA4 (human),99.3%
same,residual activity,RET (human),84.4%
same,residual activity,HIPK1 (human),93.4%
same,residual activity,MAPK13 (human),89.6%
same,residual activity,OXSR1 (human),100%
same,residual activity,CSNK1G3 (human),104%
same,residual activity,JAK3 JH1 JH2 (human),90.3%
same,residual activity,CDK9 CCNT1 (human),83.2%
same,residual activity,AKT2 (human),86.7%
same,residual activity,CSNK1A1 (human),100%
same,residual activity,PAK4 (human),75.9%
same,residual activity,ERBB2 (human),116%
same,residual activity,CDK1 CCNA2 (human),94.8%
same,residual activity,MAPKAPK5 (human),88.1%
same,residual activity,PDGFRA (human),83.1%
same,residual activity,MARK1 (human),92.6%
same,residual activity,[1],91.5%
same,residual activity,PIM2 (human),101%
same,residual activity,SRMS (human),102%
Nc1nccc(-c2c(-c3ccc(F)cc3)ncn2C2CCNCC2)n1,residual activity,MAPK8 (human),94.8%
same,residual activity,IRAK1 (human),114%
same,residual activity,RIPK2 (human),77.2%
same,residual activity,NEK7 (human),98.9%
same,residual activity,AURKB (human),103%
same,residual activity,PRKCB1 (human),91%
same,residual activity,PDPK1 (human),103%
same,residual activity,PLK1 (human),101%
same,residual activity,FER (human),98.3%
same,residual activity,CAMK4 (human),103%
same,residual activity,HIPK3 (human),97.6%
same,residual activity,MAP3K10 (human),99.8%
same,residual activity,PAK1 (human),97.4%
same,residual activity,STK11 (human),89.1%
same,residual activity,DYRK3 (human),96%
same,residual activity,AXL (human),102%
same,residual activity,STK24 (human),98.8%
same,residual activity,MST4 (human),98.4%
same,residual activity,EPHB1 (human),99.9%
same,residual activity,PHKG2 (human),104%
same,residual activity,MINK1 (human),96.1%
same,residual activity,PRKCZ (human),106%
same,residual activity,EPHA4 (human),99.8%
same,residual activity,RET (human),89.4%
same,residual activity,HIPK1 (human),101%
same,residual activity,OXSR1 (human),101%
same,residual activity,CSNK1G3 (human),83.9%
same,residual activity,JAK3 JH1 JH2 (human),96.9%
same,residual activity,CDK9 CCNT1 (human),87.1%
same,residual activity,AKT2 (human),94.8%
same,residual activity,CSNK1A1 (human),2.82%
same,residual activity,PAK4 (human),95.1%
same,residual activity,ERBB2 (human),93.7%
same,residual activity,PLK2 (human),93%
same,residual activity,CDK1 CCNA2 (human),92.7%
same,residual activity,MAPKAPK5 (human),94%
same,residual activity,PDGFRA (human),95.8%
same,residual activity,MARK1 (human),97.9%
same,residual activity,[1],104%
same,residual activity,PIM2 (human),100%
same,residual activity,SRMS (human),97.5%
CN([C@@H](Cc1ccc(OS(=O)(=O)c2cccc3cnccc23)cc1)C(=O)N1CCN(c2ccccc2)CC1)S(=O)(=O)c1cccc2cnccc12,residual activity,MAPK8 (human),94.6%
same,residual activity,IRAK1 (human),95.4%
same,residual activity,RIPK2 (human),89.4%
same,residual activity,NEK7 (human),93.3%
same,residual activity,AURKB (human),104%
same,residual activity,PRKCB1 (human),95.9%
same,residual activity,PDPK1 (human),96.4%
same,residual activity,PLK1 (human),96.7%
same,residual activity,FER (human),100%
same,residual activity,CAMK4 (human),102%
same,residual activity,HIPK3 (human),110%
same,residual activity,MAP3K10 (human),92.6%
same,residual activity,PAK1 (human),95.7%
same,residual activity,STK11 (human),99%
same,residual activity,DYRK3 (human),112%
same,residual activity,AXL (human),103%
same,residual activity,STK24 (human),102%
same,residual activity,MST4 (human),109%
same,residual activity,EPHB1 (human),94.2%
same,residual activity,PHKG2 (human),101%
same,residual activity,MINK1 (human),98.2%
same,residual activity,PRKCZ (human),101%
same,residual activity,EPHA4 (human),95.4%
same,residual activity,RET (human),105%
same,residual activity,HIPK1 (human),110%
same,residual activity,MAPK13 (human),102%
same,residual activity,OXSR1 (human),101%
same,residual activity,CSNK1G3 (human),104%
same,residual activity,JAK3 JH1 JH2 (human),98%
same,residual activity,CDK9 CCNT1 (human),100%
same,residual activity,AKT2 (human),106%
same,residual activity,CSNK1A1 (human),99%
same,residual activity,PAK4 (human),94.6%
same,residual activity,ERBB2 (human),96%
same,residual activity,PLK2 (human),102%
same,residual activity,MAPKAPK5 (human),97%
same,residual activity,PDGFRA (human),99.6%
same,residual activity,MARK1 (human),96.7%
same,residual activity,[1],108%
same,residual activity,PIM2 (human),98.5%
same,residual activity,SRMS (human),103%
